Assay results taken from publication PMC5218480 (PLoS ONE, 2017).

System: MV-4-11 cells
Assay: Gene expression microarray analysis (Affymetrix PrimeView) and GSEA
Format: cell-based, human
Design: RFU PODN (11730768_x_at) / Fold change /veh PODN (11730768_x_at) / RFU LINC00158 (11744669_a_at) / Fold change /veh LINC00158 (11744669_a_at) / RFU DUSP10 (11751237_a_at) / Fold change /veh DUSP10 (11751237_a_at) / RFU ID3 (11757404_x_at) / Fold change /veh ID3 (11757404_x_at) / RFU PLEKHG5 (11737974_s_at) / Fold change /veh PLEKHG5 (11737974_s_at) / RFU LRRC4B (11730491_at) / Fold change /veh LRRC4B (11730491_at) / RFU GIMAP4 (11747438_a_at) / Fold change /veh GIMAP4 (11747438_a_at) / RFU KRT8 (11758183_x_at) / Fold change /veh KRT8 (11758183_x_at) / RFU CNN1 (11734310_a_at) / Fold change /veh CNN1 (11734310_a_at) / RFU VPS37D (11726825_at) / Fold change /veh VPS37D (11726825_at) / RFU C10orf10 (11716522_x_at) / Fold change /veh C10orf10 (11716522_x_at) / RFU KIR2DL2 /// KIR2DL4 /// KIR2DL5A /// KIR2DL5B /// KIR2DS1 /// KIR2DS2 /// KIR2DS3 /// KIR2DS4 /// KIR3DL3 /// KIR3DL3 /// KIR3DS1 (11738374_at) / Fold change /veh KIR2DL2 /// KIR2DL4 /// KIR2DL5A /// KIR2DL5B /// KIR2DS1 /// KIR2DS2 /// KIR2DS3 /// KIR2DS4 /// KIR3DL3 /// KIR3DL3 /// KIR3DS1 (11738374_at) / RFU C1QL1 (11718748_at) / Fold change /veh C1QL1 (11718748_at) / RFU TMPRSS4 (11747572_a_at) / Fold change /veh TMPRSS4 (11747572_a_at) / RFU HAMP (11756126_x_at) / Fold change /veh HAMP (11756126_x_at) / RFU RNFT2 (11725882_a_at) / Fold change /veh RNFT2 (11725882_a_at) / RFU NR4A2 (11747474_a_at) / Fold change /veh NR4A2 (11747474_a_at) / RFU ABCC12 (11746883_a_at) / Fold change /veh ABCC12 (11746883_a_at) / RFU TMEM136 (11760407_x_at) / Fold change /veh TMEM136 (11760407_x_at) / RFU CLDN22 /// WWC2 (11732394_at) / Fold change /veh CLDN22 /// WWC2 (11732394_at) / RFU HLA-DPB1 (11760878_x_at) / Fold change /veh HLA-DPB1 (11760878_x_at) / RFU SPINT1 (11716480_a_at) / Fold change /veh SPINT1 (11716480_a_at) / RFU GAP43 (11754022_s_at) / Fold change /veh GAP43 (11754022_s_at) / RFU A4GNT (11735810_at) / Fold change /veh A4GNT (11735810_at) / RFU PRB3 (11715151_x_at) / Fold change /veh PRB3 (11715151_x_at) / RFU TUBB4B (11761932_at) / Fold change /veh TUBB4B (11761932_at) / RFU CAPN14 (11732068_a_at) / Fold change /veh CAPN14 (11732068_a_at) / RFU TMCC2 (11721928_a_at) / Fold change /veh TMCC2 (11721928_a_at) / RFU IRGQ (11745062_a_at) / Fold change /veh IRGQ (11745062_a_at) / RFU FAM174B (11720279_a_at) / Fold change /veh FAM174B (11720279_a_at) / RFU TMPRSS4 (11748680_a_at) / Fold change /veh TMPRSS4 (11748680_a_at) / RFU FAM212B (11763350_a_at) / Fold change /veh FAM212B (11763350_a_at) / RFU PLEKHG5 (11743358_a_at) / Fold change /veh PLEKHG5 (11743358_a_at) / RFU ZSCAN30 (11745921_a_at) / Fold change /veh ZSCAN30 (11745921_a_at) / RFU CMKLR1 (11741424_a_at) / Fold change /veh CMKLR1 (11741424_a_at) / RFU LOC101060620 /// MAPK8IP1 (11723275_at) / Fold change /veh LOC101060620 /// MAPK8IP1 (11723275_at) / RFU SPTSSB (11747773_x_at) / Fold change /veh SPTSSB (11747773_x_at) / RFU PRSS12 (11739890_at) / Fold change /veh PRSS12 (11739890_at) / RFU BIN1 (11741810_x_at) / Fold change /veh BIN1 (11741810_x_at) / RFU WNT11 (11732464_a_at) / Fold change /veh WNT11 (11732464_a_at) / RFU C10orf10 (11716521_a_at) / Fold change /veh C10orf10 (11716521_a_at) / RFU C5orf56 (11738089_at) / Fold change /veh C5orf56 (11738089_at) / RFU CYB561 (11721691_x_at) / Fold change /veh CYB561 (11721691_x_at) / RFU ANKRD19P (11752326_a_at) / Fold change /veh ANKRD19P (11752326_a_at) / RFU OR2T12 /// OR2T33 /// OR2T8 (11738714_s_at) / Fold change /veh OR2T12 /// OR2T33 /// OR2T8 (11738714_s_at) / RFU VCAN (11748164_a_at) / Fold change /veh VCAN (11748164_a_at) / RFU JSRP1 (11732532_at) / Fold change /veh JSRP1 (11732532_at) / RFU KRTAP10-11 (11738290_x_at) / Fold change /veh KRTAP10-11 (11738290_x_at) / RFU MYO3A (11730013_a_at) / Fold change /veh MYO3A (11730013_a_at) / RFU EBF3 (11725865_a_at) / Fold change /veh EBF3 (11725865_a_at) / RFU CAMK2N1 (11719241_x_at) / Fold change /veh CAMK2N1 (11719241_x_at) / RFU C5orf56 (11738088_a_at) / Fold change /veh C5orf56 (11738088_a_at) / RFU OLFML3 (11715873_a_at) / Fold change /veh OLFML3 (11715873_a_at) / RFU LOC100653217 /// NTM (11731650_a_at) / Fold change /veh LOC100653217 /// NTM (11731650_a_at) / RFU MAPK11 (11762145_a_at) / Fold change /veh MAPK11 (11762145_a_at) / RFU FIZ1 (11724087_x_at) / Fold change /veh FIZ1 (11724087_x_at) / RFU OASL (11726364_x_at) / Fold change /veh OASL (11726364_x_at) / RFU SOX15 (11748057_x_at) / Fold change /veh SOX15 (11748057_x_at) / RFU CD79A (11719716_a_at) / Fold change /veh CD79A (11719716_a_at) / RFU HIST1H1D (11736915_at) / Fold change /veh HIST1H1D (11736915_at) / RFU CASKIN2 (11723855_a_at) / Fold change /veh CASKIN2 (11723855_a_at) / RFU LOC730098 (11760151_x_at) / Fold change /veh LOC730098 (11760151_x_at) / RFU OR4N2 (11742367_at) / Fold change /veh OR4N2 (11742367_at) / RFU PRRT2 (11749266_a_at) / Fold change /veh PRRT2 (11749266_a_at) / RFU SNX32 (11753110_a_at) / Fold change /veh SNX32 (11753110_a_at) / RFU CDHR5 (11726645_a_at) / Fold change /veh CDHR5 (11726645_a_at) / RFU RCAN1 (11760418_a_at) / Fold change /veh RCAN1 (11760418_a_at) / RFU FAM167A (11723789_a_at) / Fold change /veh FAM167A (11723789_a_at) / RFU FAM26E (11764081_at) / Fold change /veh FAM26E (11764081_at) / RFU ISYNA1 (11749810_s_at) / Fold change /veh ISYNA1 (11749810_s_at) / RFU ACY1 (11761880_at) / Fold change /veh ACY1 (11761880_at) / RFU 11764098_at / Fold change /veh 11764098_at / RFU SAMD14 (11745864_x_at) / Fold change /veh SAMD14 (11745864_x_at) / RFU NPB (11741838_a_at) / Fold change /veh NPB (11741838_a_at) / RFU TMPRSS6 (11731388_a_at) / Fold change /veh TMPRSS6 (11731388_a_at) / RFU KRTAP10-2 (11738614_at) / Fold change /veh KRTAP10-2 (11738614_at) / RFU ARHGAP8 /// PRR5-ARHGAP8 (11727945_x_at) / Fold change /veh ARHGAP8 /// PRR5-ARHGAP8 (11727945_x_at) / RFU KRTAP5-7 /// NADSYN1 (11734609_at) / Fold change /veh KRTAP5-7 /// NADSYN1 (11734609_at) / RFU RASL12 (11751679_a_at) / Fold change /veh RASL12 (11751679_a_at) / RFU CDKN2B (11736163_a_at) / Fold change /veh CDKN2B (11736163_a_at) / RFU PRF1 (11729649_at) / Fold change /veh PRF1 (11729649_at) / RFU, ZNF638 /// ZNF638-IT1 / Fold change vs veh, ZNF638 /// ZNF638-IT1 / RFU, PANK3 / Fold change vs veh, PANK3 / RFU, SH3YL1 / Fold change vs veh, SH3YL1 / RFU, ZEB2 / Fold change vs veh, ZEB2 / RFU, NRIP1 / Fold change vs veh, NRIP1 / RFU, PTTG1IP / Fold change vs veh, PTTG1IP / RFU, CAPN2 / Fold change vs veh, CAPN2 / RFU, MED14 / Fold change vs veh, MED14 / RFU, SNORA58 / Fold change vs veh, SNORA58 / RFU, C1orf63 / Fold change vs veh, C1orf63 / RFU, LRRFIP1 / Fold change vs veh, LRRFIP1 / RFU, NDUFAF7 / Fold change vs veh, NDUFAF7 / RFU, SLC12A2 / Fold change vs veh, SLC12A2 / RFU, IBTK / Fold change vs veh, IBTK / RFU, ESF1 / Fold change vs veh, ESF1 / Fold change vs veh, TMEM50B / RFU, TAOK1 / Fold change vs veh, TAOK1 / RFU, ACBD3 / Fold change vs veh, ACBD3 / RFU, TMA16 / Fold change vs veh, TMA16 / RFU, RWDD3 / Fold change vs veh, RWDD3 / RFU, BCAT1 / Fold change vs veh, BCAT1 / RFU, EDEM3 / Fold change vs veh, EDEM3 / RFU, TMEM33 / Fold change vs veh, TMEM33 / RFU, WDR75 / Fold change vs veh, WDR75 / RFU, AHCTF1 / Fold change vs veh, AHCTF1 / RFU, TFRC / Fold change vs veh, TFRC / RFU, ZDHHC17 / Fold change vs veh, ZDHHC17 / RFU, NOM1 / Fold change vs veh, NOM1 / RFU, ARL8B / Fold change vs veh, ARL8B / RFU, ZBTB11 / Fold change vs veh, ZBTB11 / RFU, TAMM41 / Fold change vs veh, TAMM41 / RFU, KIAA1704 /// LOC100996395 / Fold change vs veh, KIAA1704 /// LOC100996395 / RFU, ING1 / Fold change vs veh, ING1 / RFU, TRMT61B / Fold change vs veh, TRMT61B / RFU, FUBP3 / Fold change vs veh, FUBP3 / RFU, TP53 / Fold change vs veh, TP53 / RFU, TNKS2 / Fold change vs veh, TNKS2 / RFU, ZFP14 / Fold change vs veh, ZFP14 / RFU, ACTR2 / Fold change vs veh, ACTR2 / RFU, PPP3R1 / Fold change vs veh, PPP3R1 / RFU, PIK3R1 / Fold change vs veh, PIK3R1 / RFU, HNRNPA1 / Fold change vs veh, HNRNPA1 / RFU, RNF170 / Fold change vs veh, RNF170 / RFU, ZNF28 / Fold change vs veh, ZNF28 / RFU, RNGTT / Fold change vs veh, RNGTT / RFU, OGT / Fold change vs veh, OGT / RFU, BRD1 / Fold change vs veh, BRD1 / RFU, MARS / Fold change vs veh, MARS / RFU, ZNF655 / Fold change vs veh, ZNF655 / RFU, FAHD1 / Fold change vs veh, FAHD1 / RFU, BDP1 / Fold change vs veh, BDP1 / RFU, LRRCC1 / Fold change vs veh, LRRCC1 / RFU, ARID1A / Fold change vs veh, ARID1A / RFU, ZNF146 / Fold change vs veh, ZNF146 / RFU, ZNF330 / Fold change vs veh, ZNF330 / RFU, GPN3 / Fold change vs veh, GPN3 / RFU, C9orf123 / Fold change vs veh, C9orf123 / RFU, N4BP2L2 / Fold change vs veh, N4BP2L2 / RFU, ARFIP1 / Fold change vs veh, ARFIP1 / RFU, FAM179B / Fold change vs veh, FAM179B / RFU, BCL10 / Fold change vs veh, BCL10 / RFU, UHRF1BP1L / Fold change vs veh, UHRF1BP1L / RFU, BET1 / Fold change vs veh, BET1 / RFU, CNOT2 / Fold change vs veh, CNOT2 / RFU, ZNF268 / Fold change vs veh, ZNF268 / Fold change vs veh, ZNF507 / RFU, DGCR2 / Fold change vs veh, DGCR2 / RFU, WDSUB1 / Fold change vs veh, WDSUB1 / Fold change vs veh, HSP90B1 /// MIR3652 / RFU, ADSS / Fold change vs veh, ADSS / RFU, GK / Fold change vs veh, GK / RFU, ZNF148 / Fold change vs veh, ZNF148 / RFU, TAF9 / Fold change vs veh, TAF9 / RFU, SLC1A5 / Fold change vs veh, SLC1A5 / RFU, SLMO2 / Fold change vs veh, SLMO2 / RFU, ABCC4 / Fold change vs veh, ABCC4 / RFU, LOC101060439 /// RAP1B / Fold change vs veh, LOC101060439 /// RAP1B / RFU, RFX7 / Fold change vs veh, RFX7 / RFU, GTPBP10 / Fold change vs veh, GTPBP10 / RFU, CNEP1R1 / Fold change vs veh, CNEP1R1 / RFU, BIVM-ERCC5 /// ERCC5 / Fold change vs veh, BIVM-ERCC5 /// ERCC5 / RFU, ILF3 / Fold change vs veh, ILF3 / RFU 11762660_at / Fold change /veh 11762660_at / RFU VCAN (11757783_s_at) / Fold change /veh VCAN (11757783_s_at) / RFU DDX43 (11728927_at) / Fold change /veh DDX43 (11728927_at) / RFU KRT8 (11758188_x_at) / Fold change /veh KRT8 (11758188_x_at) / RFU NKD1 (11759106_at) / Fold change /veh NKD1 (11759106_at) / RFU SRD5A1 (11742802_a_at) / Fold change /veh SRD5A1 (11742802_a_at) / RFU TPSAB1 /// TPSB2 (11721975_s_at) / Fold change /veh TPSAB1 /// TPSB2 (11721975_s_at) / RFU GSTM3 (11746129_a_at) / Fold change /veh GSTM3 (11746129_a_at) / RFU IL23R (11737362_x_at) / Fold change /veh IL23R (11737362_x_at) / RFU TMEM51 (11727254_a_at) / Fold change /veh TMEM51 (11727254_a_at) / RFU PIWIL2 (11732686_x_at) / Fold change /veh PIWIL2 (11732686_x_at) / RFU ORM1 (11744905_x_at) / Fold change /veh ORM1 (11744905_x_at) / RFU CCDC152 (11743942_at) / Fold change /veh CCDC152 (11743942_at) / RFU ECM1 (11717891_a_at) / Fold change /veh ECM1 (11717891_a_at) / RFU IL23R (11748794_a_at) / Fold change /veh IL23R (11748794_a_at) / RFU TNFAIP8L3 (11732012_x_at) / Fold change /veh TNFAIP8L3 (11732012_x_at) / RFU MBOAT4 (11741988_at) / Fold change /veh MBOAT4 (11741988_at) / RFU 11764193_at / Fold change /veh 11764193_at / RFU TMEM53 (11763286_at) / Fold change /veh TMEM53 (11763286_at) / RFU MAGEB2 (11727129_at) / Fold change /veh MAGEB2 (11727129_at) / RFU TMEM200A (11744735_a_at) / Fold change /veh TMEM200A (11744735_a_at) / RFU CCDC152 (11751479_a_at) / Fold change /veh CCDC152 (11751479_a_at) / RFU FAM211A (11726209_a_at) / Fold change /veh FAM211A (11726209_a_at) / RFU RGS16 (11746705_a_at) / Fold change /veh RGS16 (11746705_a_at) / RFU VCAN (11755009_s_at) / Fold change /veh VCAN (11755009_s_at) / RFU RHOB (11743442_s_at) / Fold change /veh RHOB (11743442_s_at) / RFU RGS16 (11720943_a_at) / Fold change /veh RGS16 (11720943_a_at) / RFU RGS16 (11720944_at) / Fold change /veh RGS16 (11720944_at) / RFU, VPS4B / Fold change vs veh, VPS4B / RFU, CREB1 / Fold change vs veh, CREB1 / RFU, DNAJC13 / Fold change vs veh, DNAJC13 / RFU, GNAQ / Fold change vs veh, GNAQ / RFU, CDK5R1 / Fold change vs veh, CDK5R1 / RFU, ZRANB3 / Fold change vs veh, ZRANB3 / RFU, CUL4A / Fold change vs veh, CUL4A / RFU, CCNY / Fold change vs veh, CCNY / RFU, UFL1 / Fold change vs veh, UFL1 / RFU, COG3 / Fold change vs veh, COG3 / RFU, DIAPH2 / Fold change vs veh, DIAPH2 / RFU, SKA2 / Fold change vs veh, SKA2 / RFU, AFF3 / Fold change vs veh, AFF3 / RFU, LMF1 / Fold change vs veh, LMF1 / RFU, IPO11 / Fold change vs veh, IPO11 / RFU, DFFB / Fold change vs veh, DFFB / RFU, FOXP1 / Fold change vs veh, FOXP1 / RFU, CARD8 / Fold change vs veh, CARD8 / RFU, STRN3 / Fold change vs veh, STRN3 / RFU, ADK / Fold change vs veh, ADK / RFU, RASSF2 / Fold change vs veh, RASSF2 / RFU, WIPF1 / Fold change vs veh, WIPF1 / RFU, LARP1B / Fold change vs veh, LARP1B / RFU, RASA1 / Fold change vs veh, RASA1 / RFU, RB1 / Fold change vs veh, RB1 / RFU, PPFIA1 / Fold change vs veh, PPFIA1 / RFU, MAT2A / Fold change vs veh, MAT2A / RFU, CCT5 / Fold change vs veh, CCT5 / RFU, WDR92 / Fold change vs veh, WDR92 / RFU, CUX1 / Fold change vs veh, CUX1 / RFU, TTC7A / Fold change vs veh, TTC7A / RFU, TMEM135 / Fold change vs veh, TMEM135 / RFU, DEPTOR / Fold change vs veh, DEPTOR / RFU, CPM / Fold change vs veh, CPM / RFU, DNAJB6 / Fold change vs veh, DNAJB6 / RFU, CACNA2D3 / Fold change vs veh, CACNA2D3 / RFU, DTX4 / Fold change vs veh, DTX4 / RFU, TFCP2 / Fold change vs veh, TFCP2 / RFU, GMCL1 /// GMCL1P1 / Fold change vs veh, GMCL1 /// GMCL1P1 / RFU, AEBP2 / Fold change vs veh, AEBP2 / RFU, SNHG1 /// SNORD22 /// SNORD25 /// SNORD26 /// SNORD27 /// SNORD28 /// SNORD29 /// SNORD31 / Fold change vs veh, SNHG1 /// SNORD22 /// SNORD25 /// SNORD26 /// SNORD27 /// SNORD28 /// SNORD29 /// SNORD31 / Fold change (Aza/veh), C12orf56 (ProbeSet 11735607_a_at) / Fold change (ACY-1035/veh), C12orf56 (ProbeSet 11735607_a_at) / Fold change (Aza/veh), FGFR1OP (ProbeSet 11751329_s_at) / Fold change (ACY-1035/veh), FGFR1OP (ProbeSet 11751329_s_at) / Fold change (Aza/veh), VPS36 (ProbeSet 11739960_a_at) / Fold change (ACY-1035/veh), VPS36 (ProbeSet 11739960_a_at) / RFU SYPL1 (11715823_x_at) / Fold change /veh SYPL1 (11715823_x_at) / RFU IGFBP7 (11715501_s_at) / Fold change /veh IGFBP7 (11715501_s_at) / RFU REEP3 (11722064_at) / Fold change /veh REEP3 (11722064_at) / RFU IGLL1 (11728026_x_at) / Fold change /veh IGLL1 (11728026_x_at): dose or concentration left out as unconfirmed
Conditions: ProbeSet 11716844_s_at; LIST D

Nc1ccc(-c2cccs2)cc1NC(=O)c1ccc2c(c1)cc(C1CC1)n2CCN1CCOCC1 [ACY-1035]
RFU, DNAJC13: 129.69 RFU
